Experimental data reported in patent publication US20250199015A1, “CYCLIN-DEPENDENT KINASE 2 INHIBITORS FOR MEDICAL TREATMENT” (INCYCLIX BIO, LLC, priority 2022, published 2025).

Experiments:
γ-H2AX in Hs68 cells = assay: γ-H2AX flow cytometry in normal fibroblasts; type: cell-based, human; details: 300 nM, alone or in combination with cisplatin, 24 hours
Protocol: The Hs68 Normal foreskin fibroblast cell line was grown in DMEM-high glucose/1× Glutamax/10% fetal bovine serum and was plated at 30,000 cells/well in Corning 6 well tissue culture treated plates. Cells were incubated at 37° C. for 24 hours prior to addition of the first treatment. […] Cells were treated to 24 hours post-initial treatment, with 10 μM EdU added at hour 23. Cells were collected and fixed in 1% paraformaldehyde. Cells were incubated with pacific blue azide dye as described by Thermo Scientific. Cells were then incubated with antibody against γ-H2AX at a ratio of 1:50 before incubation with FarRed dye and RNase. Cells were analyzed on a BD Celesta and data compiled using FloJo and GraphPad (FIG. 6).

COV318 cells = assay: CellTiter Glo cell proliferation assay; type: cell-based, human; details: CCNE1 amplified, six days
Protocol: Plates were returned to the incubator for six additional days. On day six post dosing, plates were removed and treated with CellTiter Glo reagent following manufacturer's specifications. Plates were incubated 45 minutes at room temperature and run on Biotek luminometer with 1 sec/well detection. Results were converted to Microsoft Excel and transferred to Graphpad Prism for analysis. […] These cell types are distinguished by either gained of cyclin E1 expression or activation (Kuramochi) or intrinsic amplification of cyclin E1 (OVCAR-3, COV318).

γ-H2AX in H526 cells = assay: γ-H2AX flow cytometry; type: cell-based, human
Protocol: (§1) The H526 human lung carcinoma cell line was grown in RPMI-1640/1× Glutamax/10% fetal bovine serum and was plated at 200,000 cells/well in Corning 6 cm tissue culture treated plates. Cells were incubated at 37° C. for 24 hours prior to addition of the first treatment. […] Cells were treated to 24 or 48 hours post-initial treatment, with 10 μM EdU added 1 hour prior to collection. Cells were collected and fixed in 1% paraformaldehyde. Cells were incubated with pacific blue azide dye as described by Thermo Scientific. Cells were then incubated with antibody against γ-H2AX at a ratio of 1:50 before incubation with FarRed dye and RNase. Cells were analyzed on a BD Celesta and data compiled using FloJo and GraphPad.
as §1, with “24” for “24 or 48”, “added at” for “added 1”, “hour 23 (FIG. 28A).” for “hour prior to collection.”, “Scientific. […]” for “Scientific. Cells were then incubated with antibody against γ-H2AX at a ratio of 1:50 before incubation with FarRed dye and RNase.”

[1] = tested on: CCNE1, CCNE2, DNA damage markers in H526 cells; assay: Western blot cell cycle and DNA damage proteins; type: cell-based, human; details: 24 hours
Protocol: (§2) The H69 and H526 human lung carcinoma cell lines were grown in RPMI-1640/1× Glutamax/10% fetal bovine serum while the Hs68 Normal foreskin fibroblast cell line was grown in DMEM-high glucose/1× Glutamax/10% fetal bovine serum. […] Cells were collected by washing each well twice with cold PBS, then scraping cells in the presence of 150 μL cold RIPA with protease and phosphatase inhibitors. Lysates were clarified by centrifugation at 14,000×g for 10 min at 4° C. and supernatants transferred to clean tubes. A BCA assay was performed to determine the protein concentration of each lysate. A total of 30 μg of protein was mixed with sample buffer and reducing agent before being run on a 4-12% SDS-PAGE. Protein was transferred to a nitrocellulose membrane and blocked with LI-COR blocking buffer for 1 hour. Membranes were incubated overnight in primary antibody at 4° C. Following 3 washes with TBS-T, membranes were incubated for 45 minutes in LI-COR secondary antibodies. Following 2 washes in TBS-T, and one TBS wash, membranes were scanned using a LI-COR OdysseyCLx. Image studio was used for image analysis.

[2] = tested on: CCNE1, CCNE2, DNA damage markers in H69 cells; assay: Western blot cell cycle and DNA damage proteins; type: cell-based, human; details: 24 hours
Protocol: as §2

[3] = tested on: OVCAR-3 cell loaded Hollow Fibers; assay: Mouse hollow fiber assay (CellTiter Glo); type: in vivo, mice; details: 75, 100, 150 mg/kg twice daily, Day 16
Protocol: The mouse hollow fiber assay was conducted using three tumor cell lines, OVCAR-3 (ovarian), MKN-1 (gastric), and HCC-1569 (breast), 1e7 OVCAR-3, 5e6 MKN-1, and 1e7 HCC-1569 cells were loaded into Hollow Fibers, placed in cell culture dishes containing RPMI-1640 with 20% FCS and 1% penicillin/streptomycin, and were equilibrated in an incubator at 37 C, 5% CO2 overnight. On Day 0, three fibers were implanted in two different compartments: subcutaneous and intraperitoneal of twenty-four female NMRI nude mice ages 4-5 weeks. […] Female NMRI nude mice were implanted both subcutaneously and intraperitoneally with HCC-1569, MKN1, and OVCAR3 tumor cell-loaded Hollow Fibers on Day 0. The number of animals alive on Day 0 (implantation) and on Day 16 (necropsy) in each group is shown in parentheses in the legend.
OVCAR-3 cell loaded Hollow Fibers were implanted both subcutaneously and intraperitoneally into female NMRI nude mice on Day 0. Hollow Fibers were collected during necropsy on Day 16 and analyzed using a CellTiter Glo® assay.

[4] = molecular target: multidrug resistance mutation (MDR) 1 (Homo sapiens, UniProt P08183); assay: Transporter inhibition; type: in vitro ADME
[5] = tested on: SA-beta galactosidase in LYR and LYFR cells; assay: Senescence-associated beta-galactosidase staining; type: cell-based; details: with abemaciclib and/or fulvestrant, 5 days
Protocol: Briefly, cells were plated at low density and treated with the agents described for 5 days. A senescence detection kit was used to stain for SA-beta galactosidase (FIG. 148A-148D).

Question: What does the source list for NS(=O)(=O)c1ccc(Nc2ncc3cc4n(c3n2)C2(CCCCC2)C(=O)NN4)cc1 [Compound I]?
Answer: percent of γ-H2AX-positive cells (γ-H2AX in Hs68 cells): lower percent of γ-H2AX-positive cells compared with control; cell viability compared with palbociclib (COV318 cells): potently decreases cell viability; γ-H2AX signal, combination with cisplatin (γ-H2AX in H526 cells; 300 nM Compound I + 300 nM cisplatin): roughly double the signal; γ-H2AX signal, Compound I alone (γ-H2AX in H526 cells; 30 to 1000 nM, 24 or 48 hours): increased yH2AX starting at 100 nM; DNA damage markers [1]: No overt DNA damage marker changes; cyclin E (CCNE1, CCNE2) levels [1]: increase of cyclin E (CCNE1, CCNE2) amplification; DNA damage markers [2]: No overt DNA damage marker changes; cyclin E (CCNE1, CCNE2) levels [2]: increase of cyclin E (CCNE1, CCNE2) amplification; tumor bioluminescence signal (CellTiter Glo) of Hollow Fibers [3]: significant reduction; MDR1 inhibition [4]: did not inhibit; beta galactosidase staining [5]: significantly increased beta galactosidase staining
